Results published in patent publication US6534514B1, “Kappa opioid receptor antagonists” (Regents of the University of Minnesota, priority 1993, dated 2003).
Like-named read-outs stand apart in the source and are kept apart here.

What was measured:
delta opioid receptors [1] = biological target: T1, delta opioid receptors (Mus musculus, UniProt P32300); assay: Mouse writhing procedure, antagonism of DADLE; format: in vivo; details: mice; agonist 50 nmol; antagonist 4 mg/kg sc
Source text: (§1) Physiological data for guinea pig ileal longitudinal muscle (GPI) was obtained by the methodology of H. P. Rang, “Stimulant Actions of Volatile Anaesthetics on Smooth Muscle,” Brit. J. Pharmacol., 22, 356 (1964) on Dunkin-Hartley males; mouse vas deferens (MVD) data was obtained using Henderson's method on Swiss-Webster males (G. Henderson et al., “A New Example of a Morphine-Sensitive Neuroeffector Junction: Adrenergic Transmission in the Mouse vas Deferens,” Brit. J. Pharmacol., 46, 764 (1972). Guinea pig brain membrane binding assays were done on Dunkin-Hartley males using a modification of the method of L. L. Werling et al., “Opioid Binding to Rat and Guinea Pig Neural Membranes in the Presence of Physiological Cations at 37° C.,” J. Pharmacol. Exp. Ther., 233 722 (1985). In vivo assays were done s.c. on mice.
(§2) Compound δ was tested in vivo using the mouse writhing procedure of G. Hayashi et al., Eur. J. Pharmacol., 85, 163 (1982).

kappa opioid receptors = biological target: T2, kappa opioid receptors (Cavia porcellus, UniProt P41144); assay: Guinea pig ileal longitudinal muscle (GPI), antagonism of ethylketazocine (EK); format: cell-based; details: for Selectivity κ/μ: GPI EK versus GPI morphine; for Selectivity κ/δ: GPI EK versus MVD DADLE; for kappa antagonist potency compared with norBNI: GPI, EK; for Kb: 15 min incubation, Ke=[antagonist]/(IC50 ratio-1)
T2 construct: a strip of longitudinal muscle with the myenteric plexus attached was prepared; from tissue; host or cells: guinea pig ileal longitudinal muscle with myenteric plexus (Dunkin-Hartley males)
T2 sequence (P41144 whole entry): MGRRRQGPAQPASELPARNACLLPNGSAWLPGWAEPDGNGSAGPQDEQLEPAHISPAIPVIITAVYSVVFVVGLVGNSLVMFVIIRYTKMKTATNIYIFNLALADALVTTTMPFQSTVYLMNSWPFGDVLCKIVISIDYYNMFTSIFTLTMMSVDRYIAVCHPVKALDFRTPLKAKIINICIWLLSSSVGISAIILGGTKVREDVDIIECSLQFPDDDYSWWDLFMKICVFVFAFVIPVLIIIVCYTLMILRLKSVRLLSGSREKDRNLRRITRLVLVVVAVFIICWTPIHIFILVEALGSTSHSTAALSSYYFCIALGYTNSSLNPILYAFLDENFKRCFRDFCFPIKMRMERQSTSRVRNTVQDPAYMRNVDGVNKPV
Description: (§3) Physiological data for guinea pig ileal longitudinal muscle (GPI) was obtained by the methodology of H. P. Rang, “Stimulant Actions of Volatile Anaesthetics on Smooth Muscle,” Brit. […] In vivo assays were done s.c. on mice.
(§4) 1. Guinea Pig Ileal Longitudinal Muscle (GPI). Ilea from guinea pigs were taken approximately 10 cm from the ileocecal junction, and a strip of longitudinal muscle with the myenteric plexus attached was prepared by the method of […] et al., Brit. […] A 1 cm portion of this strip was then mounted between two platinum electrodes placed in a 10 ml organ bath and connected to an isometric transducer; contractions were recorded on a polygraph. Contractions of the ileal strip were initiated by supramaximal rectangular pulses in all preparations (80 V of 0.5 ms duration at a frequency of 0.1 Hz). […] The organ bath was maintained at 36°-37° C. The longitudinal muscle strip was allowed to equilibrate with continuous stimulation for a minimum of 90 min. Cumulative concentration-response curves were determined after drugs were added to the bath in preselected amounts and washed out with buffer after noting their maximum effects.
(§5) Concentration-response curves were obtained in the absence (control) and the presence of the antagonist are expressed as IC50 values. The IC50 ratio represents the IC50 in the presence of the antagonist divided by the control IC50 value in the same tissue. Therefore, a high IC50 ratio represents a correspondingly high degree of antagonism at a particular receptor. This IC50 ratio was employed to calculate the Ke value using the equation Ke=[antagonist]/(IC50 ratio-1). Therefore, a low Ke represents a correspondingly high degree of binding at a particular receptor.

kappa receptors = biological target: T3, kappa receptors (Mus musculus, UniProt P33534); assay: Mouse writhing procedure, antagonism of U50488H; format: in vivo, mice
T3 construct: tested in vivo using the mouse writhing procedure of G. Hayashi et al; from tissue; host or cells: whole mouse in vivo (s.c. dosing)
T3 sequence (P33534 whole entry): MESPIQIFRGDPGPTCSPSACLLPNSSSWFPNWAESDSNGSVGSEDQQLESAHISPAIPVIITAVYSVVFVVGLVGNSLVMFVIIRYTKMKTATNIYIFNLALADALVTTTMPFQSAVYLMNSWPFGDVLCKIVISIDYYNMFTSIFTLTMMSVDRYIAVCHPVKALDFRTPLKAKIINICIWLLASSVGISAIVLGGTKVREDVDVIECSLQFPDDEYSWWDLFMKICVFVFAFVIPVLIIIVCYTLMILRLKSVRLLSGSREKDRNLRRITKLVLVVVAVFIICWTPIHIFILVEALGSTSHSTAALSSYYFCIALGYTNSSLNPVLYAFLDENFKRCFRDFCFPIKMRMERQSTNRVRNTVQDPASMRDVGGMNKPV
Source text: as §1, §2

mu opioid receptors [2] = details: agonist morphine
Description: as §3, §4, §5

delta opioid receptors [3] = biological target: T1, delta opioid receptors; assay: Mouse vas deferens (MVD), antagonism of DADLE (D); format: cell-based; design: Both vasa deferentia were dissected out of mice and mounted singly; from tissue; host or cells: mouse vas deferens (Swiss-Webster males) for A3; whole mouse in vivo for A7; details: antagonist 100 nM; agonist DADLE
Description: 2. Mouse Vas Deferens (MVD). This assay was performed according to the description by G. Henderson et al., Brit. […] Both vasa deferentia were dissected out of mice and mounted singly through two platinum ring electrodes in a 10 ml organ bath. The bath contained Krebs bicarbonate solution that was continuously bubbled with 95% O2 and 5% CO2. The organ bath was maintained at 37° C. The tissue was attached to an isometric transducer and stimulated transmurally with rectangular pulses ([…], 1 ms duration, supramaximal voltage). Drugs were added cumulatively to the bath in preselected amounts and washed out after noting their maximum effects.
as §5

mu opioid receptors [4] = biological target: T4, mu opioid receptors (Mus musculus, UniProt P42866); assay: Mouse writhing procedure, antagonism of morphine; format: in vivo; details: mice; agonist 50 nmol; antagonist 4 mg/kg sc
T4 construct: tested in vivo using the mouse writhing procedure of G. Hayashi et al; from tissue; host or cells: whole mouse in vivo (s.c. dosing)
T4 sequence (P42866 whole entry): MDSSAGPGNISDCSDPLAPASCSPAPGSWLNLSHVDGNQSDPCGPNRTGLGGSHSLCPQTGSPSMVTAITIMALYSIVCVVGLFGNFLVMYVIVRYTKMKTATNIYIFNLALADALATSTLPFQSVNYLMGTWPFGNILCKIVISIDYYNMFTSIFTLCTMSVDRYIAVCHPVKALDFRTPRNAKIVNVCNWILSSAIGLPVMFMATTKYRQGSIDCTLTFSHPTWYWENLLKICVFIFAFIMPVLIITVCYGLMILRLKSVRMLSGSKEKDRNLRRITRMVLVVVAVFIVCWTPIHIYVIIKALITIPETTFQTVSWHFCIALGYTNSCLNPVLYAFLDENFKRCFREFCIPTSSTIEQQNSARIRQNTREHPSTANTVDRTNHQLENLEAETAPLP
Source text: as §1, §2

[5] = recovering alcoholics; cited from earlier work
delta opioid receptor = delta opioid receptor (Rattus norvegicus, UniProt P33533); details: cited from earlier work
delta opioid receptor, sequence (P33533 whole entry): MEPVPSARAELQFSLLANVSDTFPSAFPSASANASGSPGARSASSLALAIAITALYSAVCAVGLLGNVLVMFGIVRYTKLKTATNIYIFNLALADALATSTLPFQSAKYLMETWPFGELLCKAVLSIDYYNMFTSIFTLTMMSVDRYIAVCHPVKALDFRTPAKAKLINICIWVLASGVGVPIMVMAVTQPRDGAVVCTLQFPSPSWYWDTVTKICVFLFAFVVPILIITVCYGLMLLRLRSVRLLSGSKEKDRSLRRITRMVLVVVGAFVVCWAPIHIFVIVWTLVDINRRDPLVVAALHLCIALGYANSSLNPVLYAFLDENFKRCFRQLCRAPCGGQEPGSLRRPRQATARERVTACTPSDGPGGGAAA

[6] = tested on: rats that were selectively bred for high voluntary ethanol drinking; details: compared to peptidyl delta-opioid receptor antagonists; cited from earlier work
rat model of alcoholism = details: cited from earlier work
[7] = antagonist 100 nM, agonist ethylketazocine
[8] = antagonist 100 nM, IC50 agonist + antagonist/IC50 agonist, agonist ethylketazocine
[9] = antagonist 10 nM, agonist ethylketazocine

T1 sequence (P32300 whole entry): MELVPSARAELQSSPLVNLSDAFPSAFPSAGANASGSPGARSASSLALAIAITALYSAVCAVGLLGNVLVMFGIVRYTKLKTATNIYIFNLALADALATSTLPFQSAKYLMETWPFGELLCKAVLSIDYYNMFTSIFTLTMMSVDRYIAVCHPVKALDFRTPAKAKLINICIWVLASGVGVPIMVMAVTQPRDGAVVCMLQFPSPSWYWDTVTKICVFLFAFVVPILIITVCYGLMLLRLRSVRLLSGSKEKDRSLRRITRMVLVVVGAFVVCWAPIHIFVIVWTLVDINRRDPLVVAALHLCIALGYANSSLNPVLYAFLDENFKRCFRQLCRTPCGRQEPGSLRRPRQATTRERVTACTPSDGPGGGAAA

Row | Compound | Selectivity κ/μ (kappa opioid receptors) | Selectivity κ/δ (kappa opioid receptors) | kappa antagonist potency compared with norBNI (kappa opioid receptors) | Kb (kappa opioid receptors; [7]) | IC50 ratio, EK (GPI) (kappa opioid receptors; [8]) | IC50 ratio, M (GPI) (mu opioid receptors [2]; antagonist 100 nM) | Ke, M (GPI) (mu opioid receptors [2]; antagonist 100 nM) | IC50 ratio, D (MVD) (delta opioid receptors [3]) | further results
1 | 17-(Cyclopropylmethyl)-6,7-dehydro-4,5α-epoxy-3,14-dihydroxy-5-[(N^2-pentanamidino)methyl]-6,7-2′,3′-indolomorphinan Dihydrochloride [Compound 6] | 28 | 93 | more potent | 0.23 nM | 439 ± 100 | 15.7 ± 4.0 | 6.80 nM | 4.71 ± 1.06 | ED50 ratio [(agonist + 6)/agonist control], DADLE (delta opioid receptors [1]): 0.25; kappa selectivity compared with norBNI (kappa opioid receptors; GPI/MVD): more selective; potency and selectivity compared with norBNI (kappa opioid receptors; GPI/MVD): more potent and selective; ED50 ratio [(agonist + 6)/agonist control], U50488H (kappa receptors; mice, agonist 50 nmol, antagonist 4 mg/kg sc): 3.77; antagonist selectivity in the whole animal model (kappa receptors; mouse writhing, 4 mg/kg sc): selective kappa antagonist; Ke, D (MVD) (delta opioid receptors [3]): 26.9 nM; ED50 ratio [(agonist + 6)/agonist control], morphine (mu opioid receptors [4]): 1.63
2 | O=C1CC[C@@]2(O)[C@H]3Cc4ccc(O)c5c4[C@@]2(CCN3CC2CC2)[C@H]1O5 [naltrexone] |  |  |  |  |  |  |  |  | incidence of relapse [5]: reduce the incidence of relapse
3 | N,N-diallyl-Tyr-Aib-Aib-Phe-Leu-OH [ICI 174864] |  |  |  |  |  |  |  |  | duration of action (delta opioid receptor; ethanol drinking): very short duration of action; ethanol drinking (delta opioid receptor; in vivo): strongly inhibits ethanol drinking
4 | 17-(Cyclopropylmethyl)-6,7-dehydro-4,5α-epoxy-3,14-dihydroxy-51′-[(4-dimethylaminobutyryl)aminomethyl]-6,7-2′,3′-indolomorphinan Dihydrochloride [Compound 43] | 10 | 166 | more potent | 0.505 nM | 199 ± 62 | 19.0 ± 6.2 | 5.56 nM | 1.20 ± 0.72 | 
5 | Oc1ccc2c3c1O[C@H]1c4[nH]c5ccccc5c4C[C@@]4(O)[C@@H](C2)N(CC2CC2)CC[C@]314 [NTI, naltrindole] |  |  |  |  |  |  |  |  | suppression of ethanol drinking [6]: unexpectedly prolonged suppression of ethanol drinking
6 | C=CCN1CC[C@]23c4c5ccc(O)c4O[C@H]2C(=O)CC[C@@]3(O)[C@H]1C5 [Naloxone, naloxone] |  |  |  |  |  |  |  |  | ethanol and water intake (rat model of alcoholism): suppress ethanol but not water intake
7 | Oc1ccc2c3c1O[C@H]1c4oc5ccccc5c4C[C@@]4(O)[C@@H](C2)N(CC2CC2)CC[C@]314 [NTB] |  |  |  |  |  |  |  |  | suppression of ethanol drinking [6]: unexpectedly prolonged suppression of ethanol drinking
8 | 17-(Cyclopropylmethyl)-6,7-dehydro-4,5α-epoxy-3,14-dihydroxy-5′-[N-(β-diethylamino)ethylcarboxyamido]-6,7-2′,3′-indolomorphinan Dihydrochloride [Compound 38] | 16 | 329 | more potent |  |  |  |  | 1.95 ± 0.56 | IC50 ratio, EK (GPI) (kappa opioid receptors; [9]): 31.8 ± 7.7; Ke, EK (GPI) (kappa opioid receptors; [9]): (10 nm) 0.320 nM; IC50 ratio, M (GPI) (mu opioid receptors [2]; antagonist 50 nM): 17.1 ± 2.1; Ke, M (GPI) (mu opioid receptors [2]; antagonist 50 nM): (50 nm) 3.14 nM
9 | 17-(Cyclopropylmethyl)-6,7-dehydro-4,5α-epoxy-3,14-dihydroxy-5′-[(N^2-propanamidino)methyl]-6,7-2′,3′-indolomorphinan Dihydrochloride [Compound 1] | 14 | 69 |  | 0.66 nM | 159 ± 43 | 11.3 ± 2.6 | 9.71 nM | 2.28 ± 0.57 | 
